The values that follow come from patent publication US20060025483A1, “(-)-Hydroxycitric acid for protection against soft tissue and arterial calcification” (priority 2004, published 2006).

One assay deals with ACE system. Put plainly: response of SBP to losartan challenge. The class given is in vivo, Spontaneously hypertensive rats (SHR). The conditions noted are these: at 6 hours; SHR fed 100 mg HCA per day as new KMgHCA. The text has this: Many factors can positively influence blood pressure, e.g., diuretics, antioxidants, regulators of sympathetic/parasympathetic tone, compounds that improve insulin sensitivity and so forth. Therefore, losartan, an angiotensin-2 receptor blocker, was utilized to discover whether the ACE system was involved in the results discussed in Example 1.
(§1) Spontaneously hypertensive rats (SHR) were placed on a diet composed of regular rat chow (60% w/w) and table sugar (40% w/w). This diet reliably elevates blood pressure in this animal model. One group received 100 mg HCA per day in the form of a new potassium-magnesium hydroxycitrate (different from that used in Example 1) via an added 5 g HCA per kg of food mix. Systolic blood pressure and body weight were tested as in Example 1 on a weekly basis.
When losartan was injected, the SBP of both groups decreased. At 6 hours, the SBP were essentially the same. […] Thus, HCA appears to decrease angiotensin-2 in rats and to lower elevated SBP. Although insulin regulation likely is a factor in the blood pressure modulating effect of HCA, this evidence argues that inhibition of ACE is also important. […]

For assay [1] the following is noted: treated rats; cited from earlier work.
In assay [2] the test system is systolic blood pressure. Put plainly: systolic blood pressure (SBP) by tail plethysmography, rats on 30% fat / sucrose diet. The class given is in vivo, Sprague-Dawley Rats. The conditions noted are these: for lowering of SBP: end of 8 weeks. The text has this: (§2) A known effect of ACE inhibitors is a reduction in elevated systolic blood pressure. To test this, the following protocol was employed: Sprague-Dawley Rats (SD), approximately 8 weeks of age were obtained. Six groups of eight male SD received the same standard rat chow manufactured to specifications. The special diets derived 30% of calories from fats (one half from lard and one half from corn oil), 50% from carbohydrates, and 20% from proteins. Twenty percent of dietary calories was derived from sucrose and the preponderance of the remaining carbohydrate calories was derived from dextrin. During weekdays (M-F), each group was gavaged twice daily with a solution containing a commercial source of potassium hydroxycitrate (KHCA), a commercial source of potassium-calcium hydroxycitrate (KCaHCA), or a pre-commercial non-salt source of potassium-magnesium hydroxycitrate (KMgHCA, listed as KMgHCA L-Low, M-Intermediate or H-High depending upon the dose). Over the weekends (S-S), a similar quantity of the weekday daily dose was added to twenty grams of food, that is, an amount of food estimated to be close to the daily intake of the animals. At initiation of study and four weeks, and eight weeks later, bloods were drawn from all SD for routine blood chemistries. Body weight (BW) was measured weekly and systolic blood pressure (SBP) was measured every two weeks.
The HCA dosages in the arms varied. The dosage used in the KHCA arm was extrapolated from the recommended 1,500 mg HCA per day for humans consuming a normal diet (i.e., ≧30% calories derived from fats) advocated by a commercial seller of KHCA and claimed to have produced acceptable clinical results. The approximate equivalent for the rat model is 35.4 mg HCA per day, which we increased to 38.4 mg HCA per day for convenience in employing a 48% HCA potassium salt and to remain safely on the high side in practice. For the sake of comparison, a commercial KCaHCA salt (60% HCA) was chosen and delivered at an HCA dosage level of 48 mg per day, which slightly exceeded the lowest dosage of HCA found to be efficacious for inhibition of weight gain in rats in the early pharmaceutical trials (45.4 mg/day) using pure trisodium hydroxycitrate and a very low fat diet. The design thus utilized a realistic diet with rough equivalents of the HCA dosages claimed to be effective in both the human and rat models.
The experimental KMgHCA dosings varied considerably from that of the other two salts. […] As a result, the recalculated HCA doses for the experimental compound were a low dose (KMgHCA L) of 14 mg, an intermediate dose (KMgHCA M) of 28 mg and a high dose (KMgHCA H) of 84 mg per day. The difficulty in calculating the HCA content in this case is not unique inasmuch as there is as of yet no universally accepted method for calculating the HCA content of the various salts. Again, preparations yielded the equivalent of 48 mg HCA per day from KCaHCA and 38.4 mg HCA per day from KHCA.
(§3) Systolic Blood Pressure (SBP): SBP was estimated by tail plethysmography in unanesthetized rats after a brief warming period. Readings were taken approximately one minute apart. To be accepted, SBP measurements had to be virtually stable for a minimum of three consecutive readings.
(§4) Statistical Analyses: Results are presented as mean±SEM. Many statistics were performed by one-way analysis of variance (ANOVA). SBP and BW were examined by two-way analyses of variance (one factor being dietary group and the second factor being time of examination). Where a significant effect of diet was detected by ANOVA (p<0.05), the Dunnett t test was used to establish which differences between means reached statistical significance (p<0.05). If a Student's t test was employed, this is noted.

In another assay the test system is insulin. Briefly: circulating insulin concentrations. The class given is in vivo, Sprague-Dawley Rats.
From the text: as §2, §4

In assay [3] the test system is systolic blood pressure. Put plainly: SBP in SHR on rat chow / table sugar diet. The conditions noted are these: 100 mg HCA per day in food; over three weeks. The assay is classed as in vivo, Spontaneously hypertensive rats (SHR). On the procedure: as §3, §1
Assay [4] is described as follows: body weight in SHR on rat chow / table sugar diet. The class given is in vivo, Spontaneously hypertensive rats (SHR). The conditions noted are these: 100 mg HCA per day in food; over three weeks. The procedure: as §1
A short description of assay [5]: glucose tolerance test with 0.1 unit regular insulin injected along with glucose. The assay is classed as in vivo, Spontaneously hypertensive rats (SHR). The conditions noted are these: at 7.5 minutes; 100 mg HCA per day in food. On the procedure: This was viewed as likely positive in that rats gain weight steadily as long as they remain in good health and the SHR at middle age, as used here, lives a relatively short life and its health deteriorates as its blood pressure rises. […] A glucose tolerance test was administered in which 0.1 unit of regular insulin was injected along with glucose. […] This finding indicates increased insulin sensitivity. (FIG. 6)

The test system of the next assay is C-reactive protein. Put plainly: serum C-reactive protein, rats on 30% fat / simple sugar diet. Also noted: key to CRP Modulation: ** = significant. The class given is in vivo. The conditions noted are these: for CRP Modulation: 4 wks; for Δ OD units after 4 wks: serum CRP, 1 unit equals 50 picograms/mL. From the text: (§5) To test the properties of HCA in various forms under conditions similar to those found in human clinical trials, the inventor arranged for rats to be fed a diet in which 30% of the calories were obtained from fat under standard conditions, with a further approximately 20% of the calories being supplied as simple sugars. Such a dietary combination of fat and simple sugars is noted as promoting a variety of metabolic imbalances and dysfunctions. The rats were intubated twice daily with one of five HCA salts or placebo. On weekends, the HCA was added to the food at an approprate dosage. The amount of HCA in each arm of 8 animals was based on the minimum dosage which had been found effective in the form of the pure trisodium salt of HCA in tests by Hoffmann-La Roche in animals ingesting a 70% glucose diet, i.e., 0.33 mmoles/kg body weight HCA given twice per day. The HCA salts used were these: KCaHCA=a mixed potassium and calcium or double metal HCA salt commercially marketed as being entirely water soluble and of relatively high purity; KHCA=a relatively clean commercial potassium salt of HCA with a good mineral ligand attachment supplying 4467 mg potassium/100 grams of material; KMgHCA=three different dosage levels of an experimental potassium and magnesium salt with special characteristics, but suspected of being relatively unstable when exposed to stomach acid. The KCaHCA and KHCA salts were 60% HCA delivered at the rate of approximately 76 mg/day. The KMgHCA salts were delivered at the rate of 76 mg/day (r), 38 mg/day (l) and 228 mg/day (h), but due to initial miscalculations of the water of crystallization, this salt was only 45% HCA rather than 60%. The proper dosage for the KMgHCA(r) should have been 100 mg/day; the half dose (I) should have been 50 mg/day, and the triple dose (h) should have been 300 mg/day to match the commercial salts.
Tests were performed for C-reactive protein. Data was obtained for the animals at start and then at week 4 based on serum. Optical Density (OD) readings in the test kit used were 1 unit equals 50 picograms/mL. The delta changes over the 4 weeks for each arm vs control are shown.

Another assay has as its system TNF-α. Put plainly: TNF-α, rats on 30% fat / simple sugar diet. The assay is classed as in vivo. The conditions noted are these: eight weeks.
From the text: as §5, with “The KCaHCA and KHCA salts were 60% HCA delivered at the rate of approximately 76 mg/day. The KMgHCA salts were delivered at the rate of 76 mg/day (r), 38 mg/day (l) and 228 mg/day (h), but due to initial miscalculations of the water of crystallization, this salt was only 45% HCA rather than 60%. The proper dosage for the KMgHCA(r) should have been 100 mg/day; the half dose (I) should have been 50 mg/day, and the triple dose (h) should have been 300 mg/day to match the commercial salts.” left out

With `O=C(O)CC(O)(C(=O)O)C(O)C(=O)O` (single isomer, unassigned; (-)) [HCA, (−)-Hydroxycitric acid], in the assay with ACE system, the “decrease in SBP after losartan injection” value is −21.7±7.0. For the same molecule, in assay [1], the “plasma levels of glucose, insulin, or free fatty acids relative to controls” value is listed as “no significant differences in plasma levels of glucose, insulin, or free fatty acids”.
On to `O=C([O-])CC(O)(C(=O)[O-])C(O)C(=O)[O-].[K+].[Mg+2]` (centres unmarked) [KMgHCA, potassium-magnesium hydroxycitrate], for which the “SBP compared to control” value in the assay on systolic blood pressure [2] (course of study, low dose 14 mg HCA per day) was “below the threshold for effect”; in the assay with systolic blood pressure [2] (end of eight weeks, high dose 84 mg HCA per day) it was “significant decreases in SBP compared to control”; in the assay with systolic blood pressure [2] (end of eight weeks, intermediate dose 28 mg HCA per day), “significant decreases in SBP compared to control”. Also, the “lowering of SBP” value in the assay with systolic blood pressure [2] (high dose 84 mg HCA per day) and with systolic blood pressure [2] (intermediate dose 28 mg HCA per day) was “over 10 mm Hg” in each case. For the same molecule, the “insulin, control versus arm alone, Student's t test” value with insulin (84 mg HCA per day) is reported as “at the margin of significance”. In the assay on insulin (all KMgHCA groups (14, 28, 84 mg HCA per day), not significant using ANOVA), the “average insulin concentrations vs control” value is reported as “lower”. Besides, in the assay on systolic blood pressure [3], the “SBP change from baseline” value was “decrease in SBP from baseline”. For the same molecule, in assay [4], the body weight entry was “trend for an increase in body weight”. For the same molecule, in [5], the “rise in glucose appearance in bloodstream” value is “significantly lesser rise in glucose appearance in bloodstream”. In addition, the “CRP Modulation” value in the assay with C-reactive protein (salt 38 mg/day), in the assay with C-reactive protein (salt 76 mg/day) and with C-reactive protein (salt 228 mg/day) was “**” each time. Further, the “Δ OD units after 4 wks” value is on record as 33 OD units with C-reactive protein (salt 38 mg/day), −145 OD units in the assay on C-reactive protein (salt 76 mg/day) and −11.3 OD units in the assay with C-reactive protein (salt 228 mg/day). The “TNF-α, simple t test versus control” value in the assay with TNF-α (intermediate dose) and in the assay on TNF-α (low dose) was “significance” throughout.
